Experimental data: ChEMBL document CHEMBL1201862, “PubChem BioAssay data set” (2004)
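How tested: cells in 96-well plates exposed to compound for 48 hours at five concentrations. GI50 marks 50% less growth.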 The source made the active and inactive calls. Cut-off read from the data, not from the text of the source: active = GI50 up to about 1.1 µM and inactive = higher.

Experiments:
Experiment in all cases: NCI anticancer screen, dose series, 48 h
SF-268 = tested on: SF-268
NCI-H23 = tested on: NCI-H23
SF-539 = tested on: SF-539
KM12 = tested on: KM12
PC-3 = tested on: PC-3
Hs-578T = tested on: Hs-578T
MOLT-4 = tested on: MOLT-4
RXF 393 = tested on: RXF 393
A549 = tested on: A549
EKVX = tested on: EKVX
NCI-H460 = tested on: NCI-H460
SN12C = tested on: SN12C
SW-620 = tested on: SW-620
HCT-116 = tested on: HCT-116
HCC 2998 = tested on: HCC 2998
HOP-62 = tested on: HOP-62
IGROV-1 = tested on: IGROV-1
MDA-MB-231 = tested on: MDA-MB-231
K562 = tested on: K562
Malme-3M = tested on: Malme-3M

Measured: GI50

CC1=CC(=O)/C(=C/n2c(=S)[nH]c3cc(C)ccc32)C(=O)O1
inactive: SF-268 > 100 µM | NCI-H23 > 100 µM | SF-539 > 100 µM | KM12 > 100 µM | PC-3 > 100 µM | Hs-578T > 100 µM | MOLT-4 > 100 µM | RXF 393 6.21 µM | A549 > 100 µM | EKVX > 100 µM | NCI-H460 > 100 µM | SN12C > 100 µM | SW-620 > 100 µM | HCT-116 > 100 µM | HCC 2998 > 100 µM | HOP-62 > 100 µM | IGROV-1 > 100 µM | MDA-MB-231 > 100 µM

CCOP(=O)(/C=C/n1ccc(N)nc1=O)OCC
inactive: SF-268 > 100 µM | NCI-H23 > 100 µM | SF-539 > 100 µM | KM12 > 100 µM | PC-3 > 100 µM | Hs-578T > 100 µM | K562 > 100 µM | MOLT-4 > 100 µM | RXF 393 > 100 µM | A549 > 100 µM | EKVX > 100 µM | NCI-H460 > 100 µM | SN12C > 100 µM | SW-620 > 100 µM | HCT-116 > 100 µM | HOP-62 > 100 µM | IGROV-1 > 100 µM | MDA-MB-231 > 100 µM

Cc1cc(C)c2c(O)c(S(=O)(=O)c3ccc(Cl)cc3)c(=O)oc2c1
inactive: SF-268 40.2 µM | NCI-H23 84.1 µM | Malme-3M 59.7 µM | SF-539 > 100 µM | KM12 36.1 µM | PC-3 49 µM | Hs-578T 39.4 µM | K562 55.6 µM | RXF 393 > 100 µM | A549 46.3 µM | EKVX 22.7 µM | NCI-H460 52.2 µM | SN12C 65.3 µM | SW-620 68.7 µM | HCT-116 53.5 µM | HOP-62 61.8 µM | IGROV-1 31.7 µM | MDA-MB-231 78.7 µM

COc1cc2c(c(O)c1OC)C(O)C1CCC(=O)N1C2c1cccc2ccccc12 (stereo not given)
inactive: SF-268 > 100 µM | NCI-H23 > 100 µM | Malme-3M 36.9 µM | SF-539 > 100 µM | KM12 34.9 µM | PC-3 49.7 µM | Hs-578T 48 µM | K562 > 100 µM | MOLT-4 58.2 µM | RXF 393 57.9 µM | A549 99.1 µM | EKVX 67.8 µM | NCI-H460 > 100 µM | SN12C > 100 µM | SW-620 > 100 µM | HCT-116 > 100 µM | HOP-62 > 100 µM | IGROV-1 > 100 µM | MDA-MB-231 89.5 µM

CN(N=O)C(=N)NC(=O)c1ccccc1
inactive: SF-268 > 100 µM | NCI-H23 > 100 µM | Malme-3M > 100 µM | SF-539 62.1 µM | KM12 > 100 µM | PC-3 > 100 µM | Hs-578T > 100 µM | K562 > 100 µM | MOLT-4 > 100 µM | RXF 393 > 100 µM | A549 > 100 µM | EKVX 61.2 µM | NCI-H460 19.3 µM | SW-620 > 100 µM | HCT-116 67.6 µM | HOP-62 > 100 µM | IGROV-1 > 100 µM | MDA-MB-231 > 100 µM

CCOC(=O)C(=O)/C(=C/NC(=S)Nc1ccc(Cl)c(Cl)c1)C(=O)OCC
inactive: SF-268 > 100 µM | NCI-H23 70 µM | Malme-3M > 100 µM | SF-539 25.6 µM | KM12 86.5 µM | PC-3 47 µM | Hs-578T 44.5 µM | MOLT-4 29.4 µM | RXF 393 37.8 µM | A549 > 100 µM | EKVX 25.6 µM | NCI-H460 > 100 µM | SN12C 88.3 µM | SW-620 87.9 µM | HCT-116 75 µM | HOP-62 > 100 µM | IGROV-1 85.9 µM | MDA-MB-231 > 100 µM

COc1ccc(C2Oc3c(cccc3OC)C=C2[N+](=O)[O-])cc1OC (stereo not given)
inactive: SF-268 15.9 µM | NCI-H23 4.41 µM | Malme-3M 7.59 µM | KM12 9.98 µM | PC-3 4.08 µM | Hs-578T 6.25 µM | K562 2.58 µM | MOLT-4 2.85 µM | RXF 393 2.57 µM | A549 14.7 µM | EKVX 45.2 µM | NCI-H460 21.5 µM | SN12C 5.55 µM | HCT-116 4.55 µM | HOP-62 21.2 µM | IGROV-1 11.9 µM | MDA-MB-231 9.91 µM

COC(=O)Nc1nc2cc(NC(=O)c3ccc(I)cc3)ccc2[nH]1
inactive: SF-268 > 100 µM | NCI-H23 > 100 µM | Malme-3M 72.6 µM | SF-539 > 100 µM | KM12 > 100 µM | PC-3 > 100 µM | Hs-578T 84.1 µM | K562 > 100 µM | MOLT-4 > 100 µM | RXF 393 > 100 µM | A549 > 100 µM | EKVX > 100 µM | NCI-H460 > 100 µM | SN12C > 100 µM | SW-620 > 100 µM | HCT-116 > 100 µM | HOP-62 > 100 µM | IGROV-1 > 100 µM | MDA-MB-231 > 100 µM

Cc1ccc2c(c1)[nH]c(=S)n2C=C1C(=O)CC(C)(C)CC1=O
inactive: SF-268 > 100 µM | NCI-H23 > 100 µM | SF-539 > 100 µM | KM12 > 100 µM | PC-3 > 100 µM | Hs-578T > 100 µM | MOLT-4 > 100 µM | RXF 393 > 100 µM | A549 > 100 µM | EKVX 18.9 µM | NCI-H460 > 100 µM | SN12C > 100 µM | SW-620 > 100 µM | HCT-116 > 100 µM | HCC 2998 > 100 µM | HOP-62 > 100 µM | IGROV-1 15.8 µM | MDA-MB-231 > 100 µM

COC(=O)c1cnn2c1ccc1ccccc12
inactive: SF-268 > 100 µM | NCI-H23 > 100 µM | Malme-3M > 100 µM | SF-539 > 100 µM | KM12 61.5 µM | PC-3 > 100 µM | Hs-578T > 100 µM | K562 > 100 µM | MOLT-4 > 100 µM | RXF 393 > 100 µM | A549 > 100 µM | EKVX 55.3 µM | NCI-H460 > 100 µM | SN12C > 100 µM | SW-620 > 100 µM | HCT-116 > 100 µM | HOP-62 > 100 µM | IGROV-1 78.9 µM | MDA-MB-231 > 100 µM

CC(O)C1(CNc2cc(Cl)nc(N)n2)CCC1 (stereo not given)
inactive: NCI-H23 > 100 µM | Malme-3M > 100 µM | SF-539 > 100 µM | KM12 > 100 µM | PC-3 > 100 µM | Hs-578T > 100 µM | K562 > 100 µM | MOLT-4 > 100 µM | RXF 393 24.2 µM | A549 > 100 µM | EKVX 59.3 µM | NCI-H460 > 100 µM | SN12C > 100 µM | SW-620 > 100 µM | HCT-116 > 100 µM | HCC 2998 > 100 µM | HOP-62 > 100 µM | IGROV-1 > 100 µM | MDA-MB-231 > 100 µM

Cc1c(C#N)c2nnn(-c3ccc([N+](=O)[O-])cc3)c(=O)n2c1-c1ccccc1
inactive: SF-268 14.7 µM | NCI-H23 3.9 µM | Malme-3M 14.7 µM | SF-539 14.6 µM | KM12 5.6 µM | PC-3 4.26 µM | Hs-578T 25.5 µM | K562 3.37 µM | RXF 393 16.5 µM | A549 10.1 µM | EKVX 8.89 µM | NCI-H460 5.86 µM | SN12C 11.5 µM | SW-620 10.2 µM | HCT-116 6.62 µM | HCC 2998 7.43 µM | HOP-62 7.29 µM | IGROV-1 15.3 µM | MDA-MB-231 17.3 µM

O=S(=O)(/N=c1/[nH]c2ccccc2n1S(=O)(=O)c1ccccc1)c1ccccc1
inactive: SF-268 42.4 µM | NCI-H23 41.6 µM | Malme-3M 37.2 µM | KM12 33.1 µM | PC-3 36.8 µM | Hs-578T 88.1 µM | K562 32.7 µM | MOLT-4 29.2 µM | RXF 393 56.8 µM | A549 42.4 µM | EKVX 65.6 µM | SN12C 65.5 µM | SW-620 30.4 µM | HCT-116 46.7 µM | HOP-62 56.5 µM | IGROV-1 48 µM | MDA-MB-231 > 100 µM

CC1=[N+]([O-])C2(CCCC2)N(O)C1(C)C
inactive: SF-268 > 100 µM | NCI-H23 > 100 µM | Malme-3M > 100 µM | SF-539 > 100 µM | KM12 > 100 µM | PC-3 > 100 µM | Hs-578T > 100 µM | K562 > 100 µM | RXF 393 > 100 µM | A549 > 100 µM | EKVX > 100 µM | NCI-H460 > 100 µM | SN12C > 100 µM | SW-620 > 100 µM | HCT-116 > 100 µM | HCC 2998 > 100 µM | HOP-62 > 100 µM | IGROV-1 > 100 µM | MDA-MB-231 > 100 µM

COC(=O)[C@H](COC(=O)/C=C/c1ccc(OC(C)=O)c(OC(C)=O)c1)NC(=O)/C=C/c1ccc(OC(C)=O)c(OC(C)=O)c1
inactive: NCI-H23 22.4 µM | Malme-3M 5.09 µM | SF-539 45.1 µM | KM12 16.2 µM | PC-3 15 µM | Hs-578T 21.7 µM | K562 > 100 µM | MOLT-4 > 100 µM | RXF 393 28.5 µM | A549 30.7 µM | EKVX 15.5 µM | NCI-H460 22.4 µM | SN12C 18.8 µM | SW-620 30.7 µM | HCT-116 16.7 µM | HCC 2998 17.6 µM | HOP-62 17.2 µM | IGROV-1 18.5 µM | MDA-MB-231 17.7 µM
